In patent US10800784B2, “Nitrogen-containing heterocyclic amide compound and pharmaceutical use thereof” (Japan Tobacco Inc., priority 2018, dated 2020):

What was measured:
human PDHK1 (hPDHK1) = human PDHK1 (hPDHK1) (Homo sapiens (Human), UniProt Q15118); assay: Inhibitory action of PDHK1 activity in vitro (residual PDH activity after PDHK reaction); assay type: biochemical; conditions: PDH/hPDHK1 complex solution, PDHK reaction at room temperature for 45 min, NADH absorbance at 340 nm; read-out: hPDK1 IC50
Chain of human PDHK1 (hPDHK1) (Q15118 29-436): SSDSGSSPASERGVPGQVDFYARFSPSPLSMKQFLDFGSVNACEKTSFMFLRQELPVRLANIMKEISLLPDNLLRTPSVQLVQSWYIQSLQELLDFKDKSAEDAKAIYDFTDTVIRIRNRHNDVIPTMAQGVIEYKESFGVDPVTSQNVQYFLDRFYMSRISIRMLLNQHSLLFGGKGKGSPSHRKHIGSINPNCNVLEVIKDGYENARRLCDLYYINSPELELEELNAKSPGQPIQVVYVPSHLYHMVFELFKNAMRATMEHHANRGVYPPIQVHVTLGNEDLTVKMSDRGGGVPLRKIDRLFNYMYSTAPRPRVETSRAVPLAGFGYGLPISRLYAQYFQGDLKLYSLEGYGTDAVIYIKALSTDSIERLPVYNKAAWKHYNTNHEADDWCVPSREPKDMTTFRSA
In short: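 N-FLAG hPDHK1 (E. coli-expressed, 0.5 μg/mL) precomplexed overnight at 4 °C with porcine heart PDH (0.025 U/mL), then reacted 45 min at room temperature with compound and ATP (0.353 μmol/L as added) in MOPS pH 7.0 buffer. Residual PDH activity after 90 min with pyruvate, CoA, NAD, TPP read as NADH at 340 nm.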

human PDHK2 (hPDHK2) = human PDHK2 (hPDHK2) (Homo sapiens (Human), UniProt Q15119); assay: Inhibitory action of PDHK2 activity in vitro (residual PDH activity after PDHK reaction); assay type: biochemical; conditions: PDH/hPDHK2 complex solution, PDHK reaction at room temperature for 45 min, NADH absorbance at 340 nm; read-out: kPDK2 IC50
In short: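 Indirect assay: FLAG-tagged hPDHK2 (0.5 μg/mL) precomplexed overnight at 4 °C with PDH (0.025 U/mL), then kinase reaction with compound and ATP 45 min at room temperature, pH 7.0 MOPS buffer. Residual PDH activity measured after 90 min with pyruvate, CoA, NAD, TPP as NADH absorbance at 340 nm, corrected for compound effect on PDH-only blank.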

Row | IC50 (human PDHK1 (hPDHK1)) | IC50 (human PDHK2 (hPDHK2)) | SMILES
1 | 17 nM | 32 nM | C[C@H]1CN(C(=O)C(C)(C)c2ccc(C(=O)O)c(C3CC3)c2)Cc2onc([C@@](C)(O)C(F)(F)F)c21 [Example 116]
2 | 6 nM | 8 nM | C[C@H]1CN(C(=O)c2c(C#N)c(C3CC3)nn2C)Cc2onc([C@@](C)(O)C(F)(F)F)c21 [Example 117]
3 | 4 nM | 4 nM | C[C@H]1CN(C(=O)c2cc(C3(C)CC3)nn2C)Cc2onc([C@@](C)(O)C(F)(F)F)c21 [Example 118]
4 | 4 nM | 5 nM | C[C@H]1CN(C(=O)c2cc(C3(C)CC3)n(C)n2)Cc2onc([C@@](C)(O)C(F)(F)F)c21 [Example 119]
5 | 5 nM | 9 nM | C[C@H]1CN(C(=O)C(C)(C)c2ccc(-c3nn[nH]n3)cc2)Cc2onc([C@@](C)(O)C(F)(F)F)c21 [Example 120]
6 | 5 nM | 5 nM | C[C@H]1CN(C(=O)c2cn(C)nc2C2CC2)Cc2onc([C@@](C)(O)C(F)(F)F)c21 [Example 121]
7 | 5 nM | 7 nM | C[C@H]1CN(C(=O)c2cc(-c3ccccc3)nn2C)Cc2nnc([C@@](C)(O)C(F)(F)F)n21 [Example 122, ((S)-5-methyl-3-((R)-1,1,1-trifluoro-2-hydroxypropan-2-yl)-5,6-dihydro-[1,2,4]triazolo[4,3-a]pyrazin-7(8H)-yl)(1-methyl-3-phenyl-1H-pyrazol-5-yl)methanone]
8 | 6 nM | 12 nM | C[C@H]1CN(C(=O)c2cc(C3CC3)nn2C)Cc2nnc([C@@](C)(O)C(F)(F)F)n21 [Example 123]
